This note sets out measurements from US5773236A, “Assay for glutathiane transferase using polyhaloaryl-substituted reporter molecules” (Molecule Probes, Inc., priority 1997, dated 1998).

Counter-ions that a name gives are not always drawn.

Test [1] deals with CRE BAG 2 cells. Briefly: Marker gene expression by flow cytometry, CRE BAG 2 (Example 62). In kind it is cell-based. To be noted: 0.2 mM dye, 37° C., 30 minutes. How it is done: NIH-3T3 and CRE BAG2 cells are maintained as in Example 61. A 10 mM stock solution of (((3 -(2-pentafluorobenzoyl)amino)ethyl)amino)carbonyl)-umbelliferyl β-D-galactopyranoside (Compound 37; Example 37) is prepared in DMF. A 10 mM stock solution of 4-chloromethylcoumarin β-D-galactopyranoside (CMCG; Molecular Probes #D-2921) is prepared in a 1:1 mixture of DMSO and water. NIH-3T3 and CRE BAG2 cells are trypsinized, washed with phosphate buffered saline (PBS), pH 7.2 and resuspended in D-MEM with 10% BCS. To separate 1 mL cell suspensions are added the dye stock solutions to obtain final concentrations of 0.2 mM dye. Incubation is carried out at 37° C. for 30 minutes. Cells are centrifuged to form a pellet, the supernatant is discarded and the cells are washed twice with PBS, pH 7.2 and suspended in the same buffer. Cells are analyzed by flow cytometry using a Becton-Dickinson FACS Vantage flow cytometer. […] However, CRE BAG 2 cells stained with the Compound 37 show fluorescence that is greater than 25-fold that shown by autofluorescent control cells. For the CRE BAG 2 cells stained with CMCG, the fluorescence intensity is only 8-fold greater than that of the autofluorescent control cells.
(In general: In flow cytometry, cells or beads pass a laser one at a time.)

The subject of test [2] is Bovine pulmonary aorta endothelial cells (BPAEC). Briefly: Retention of fluorescence in fixed cells (Example 66). Particulars: 3.7% formaldehyde 30 minutes, 0.2% Triton X-100 30 minutes. Type of test: cell-based.
The test system is the same in test [3]. In words: Glutathione adduct formation and fate of substrate in cultured animal cells, HPLC (Example 66). Type of test: cell-based. How it is done:
The solutions are mixed overnight with three volumes of ethyl acetate followed by centrifugation at 15,000×g for 30 min to separate the organic and aqueous layers. HPLC analysis using a Rainin HPLC equipped with a C18, 5 μm, 100 Å, 4.6×250 mm MICROSORB-MV reverse phase column. […] Products are detected by reading the absorbance at 500 nm.
Bovine pulmonary aorta endothelial cells (BPAEC) are removed from flasks by trypsinization and washed into fresh complete growth medium to yield 10^6 cells/mL. […] Other aliquots of the cell suspension are loaded with the same substrates for 1 hour, rinsed into fresh complete medium, then incubated in the absence of substrate for an additional 3 hr at 37° C. to look for retention and efflux of fluorescent products. At the end of each incubation period the cells are removed by centrifugation and the supernate is retained. The cell pellets are resuspended in 1 mL of E-Pure water and subjected to three freeze-thaw cycles (-80° C. to 37° C.).

In test [4] the test system is CRE BAG 2 cells. In words: Peptidase substrates in live cells, fluorescence microscopy (Example 59). In kind it is cell-based. Particulars: 1 μM, 0.5 μM or 0.1 μM, 37° C., 30 minutes. Here is the method: CRE BAG 2 cells obtained from American Type Culture Collection Co., Rockville, Md. are used. They are grown in a humidified atmosphere of 5% CO2 in D-MEM supplemented with 10% calf serum, 50 μg/mL gentamycin, 300 μg/mL L-glutamine and 10 mM HEPES, pH 7.4. 1 mM stock solutions of Compound 13-Leu (Example 13) and Compound 13-Arg substrate are prepared in DMSO. CRE BAG 2 cells are trypsinized, washed with phosphate-buffered saline, pH 7.2 and resuspended in 1 mL of the same buffer. 1 μL, 0.5 μL or 0.1 μL of the stock reagents is added to 1 mL of the cell suspension to obtain a final concentration of 1 μM, 0.5 μM or 0.1 μM. Incubation is carried out at 37° C. for 30 minutes. Cells are centrifuged to form a pellet, the supernatant is discarded and the cells are washed with PBS, pH 7.2 and suspended in the same buffer. Cells are mounted on slides and observed by fluorescence microscopy using filters optimized for fluorescein.

A further test relates to alkaline phosphatase. In words: Detection of alkaline phosphatase on a membrane blot (Example 63). Type of test: biochemical. To be noted: nitrocellulose; for amount of enzyme detected, before washing: 35 minutes, 37° C., prior to washing the membranes. Here is the method:
The reagents used are: 1) 5-(pentafluorobenzoylamino)fluorescein diphosphate, tetraammonium salt (Compound 47; Example 47), 10 mM in 0.1M Tris, pH 8.5; 2) fluorescein diphosphate (FDP; Molecular Probes, #F-2999), 10 mM in 0.1M Tris, pH 8.5; 3) BLOCKER Blotto in PBS (Pierce Chemical Company); 4) 0.2M glycine, pH 8.8; 5) 0.05M MgCl2, 6) 0.1M Tris, pH 8.5; 7) wash buffer: 20 mM Tris, 137 mM NaCl, 0.5% TWEEN 20, pH 7.5. Stock solutions of alkaline phosphatase are diluted in 0.1M Tris, pH 8.5 to obtain solutions with the following concentrations: 1 μg/μL, 0.5 μg/μL, 0.25 μg/μL, 0.1 μg/μL, 50 ng/μL, 10 ng/μL, 1 ng/μL and 0 ng/μL. 1 μL of each diluted solution is spotted on a nitrocellulose membrane (1"×1"), pore size 0.45 μM, and allowed to dry overnight at room temperature. Blocking is done by treating both nitrocellulose blots with 2 mL of supernatant liquid from the BLOCKER Blotto solution for 30 minutes at room temperature. The following mixture is prepared: 1.5 mL of 0.2M glycine, pH 8.8+0.4 mL of 0.05M MgCl2 +100 μL of 0.1M Tris, pH 8.5+10 μL of 10 mM substrate stock solution (either PFB-FDP or FDP). Blotto supernatant on the blots is replaced with the above mixture and incubation is carried out for 35 minutes at 37° C. A Polaroid image of the blots is obtained by illuminating with reflected UV light at 254 nm. Exposure time is 5-10 sec with an aperture setting of F=4.5 and filter #15 is used to block unwanted light. Both Compound 47 and FDP can detect ~50 ng of the enzyme prior to washing the membranes. The blots are washed twice for 5 minutes each time with 2 mL of wash buffer and an image is obtained using the same settings and exposure times as described above.

Another test has as its system NIH-3T3 cells. In words: Hydrolysis of esterase substrates and product retention in live cells, flow cytometry (Example 65). Type of test: cell-based. Here is the method:
NIH-3T3 cells obtained from American Type Culture Collection Co., Rockville, Md. are used. They are grown in a humidified atmosphere of 5% CO2 in D-MEM supplemented with 10% bovine calf serum (BCS), 50 μg/mL gentamycin, 300 μg/mL L-glutamine and 10 mM HEPES, pH 7.4. Stock solutions of Compound 4 (Example 3), 10 mM in DMSO, and Compound 48 (Example 50), 5 mM in DMSO, are prepared. NIH-3T3 cells are trypsinized, washed with phosphate-buffered saline (PBS), pH 7.2 and resuspended in D-MEM with 10% BCS. To 1 mL of the cell suspension is added the dye stock solution to obtain a final dye concentration of 0.1 mM. Incubation is carried out at 37° C. for 30 minutes followed by incubation on ice for 30 minutes. Cells are centrifuged to form a pellet, the supernatant is discarded and the cells are washed twice with PBS, pH 7.2 and suspended in the same buffer. Cells are analyzed by flow cytometry using the Becton-Dickinson FACS Vantage flow cytometer. After analysis on the flow cytometer, cells are placed at 37° C. and analyzed by flow cytometry at frequent intervals over a period of 75 minutes. Cells stained with either of the dyes are at least 20-fold brighter than the autofluorescent control cells. Approximately 45% of Compound 4 and 35% of Compound 48 are still retained by the cells after 75 minutes of incubation at 37° C.

The test system of test [5] is glutathione transferase (GST). In words: Reactivity with glutathione catalyzed by glutathione transferase, TLC (Example 50). In kind it is biochemical. How it is done:
The suitability of Compound 1 (Example 1) and 5-(pentachlorobenzoylamino)fluorescein (Compound 48) as substrates for glutathione transferase (GST) in the presence of excess glutathione (GSH) is tested in vitro as follows: 5 mM GSH, 0.5 mM substrate (Compound 1 or Compound 48) and 20 micrograms GST (Sigma #G-6511, 70 units/mg) are combined in 0.1M phosphate buffer, pH 8.0, for 1 hour at 37° C. The reaction is terminated by spotting approximately 3 μL on silica gel TLC plates. The plate is developed using 1-butanol: methanol: water (3:1:1). […] Analysis of the reaction mixture by HPLC as in Example 52 confirms that the reaction product of Compound 1 with GSH is identical to the authentic Compound 1-GSH adduct as prepared in Example 45 (Compound 45).

Where [6] appears, read: 15 min, 5 μM substrate, continuous.
[7] abbreviates: 1 hr, washed, then additional 3 hr at 37° C.
Setting [8] is: 4 hrs, 5 μM substrate, continuous.

On to `O=c1cc(CCl)c2ccc(O[C@@H]3O[C@H](CO)[C@H](O)[C@H](O)[C@H]3O)cc2o1` [CMCG, 4-chloromethylcoumarin β-D-galactopyranoside, reference compound], for which the “fluorescence relative to autofluorescent control cells” value in the test on CRE BAG 2 cells [1] is listed as 8 fold.
Turning to `CC(=O)Oc1ccc2c(c1)Oc1cc(OC(C)=O)ccc1C21OC(=O)c2cc(NC(=O)c3ccccc3)ccc21` [Compound 5, 5-(benzoylamino)fluorescein diacetate], the “fluorescence after fixation and permeabilization” value in test [2] is listed as “essentially nonfluorescent”. For the same molecule, the “GSH adduct formation in cells” value in test [3] (5 μM substrate, 37° C., HPLC) is listed as “does not”. Moreover, in test [3] (setting [6]), the “EXTRACELLULAR Free dye” value is on record as 4829 relative fluorescence units; the “EXTRACELLULAR Free dye, fraction of total fluorescence” value (shortened to “EXTRACELLULAR Free dye, fraction”) is reported as 91.5%; the “INTRACELLULAR Free dye” value is on record as 450 relative fluorescence units; the “INTRACELLULAR Free dye, fraction of total fluorescence” value stood at 8.5%. Further, in test [3] (setting [7]), the “EXTRACELLULAR Free dye” value is recorded as 469 relative fluorescence units and the “EXTRACELLULAR Free dye, fraction” value was found to be 100%. In addition, in test [3] (setting [8]), the “EXTRACELLULAR Free dye” value was 8627 relative fluorescence units; the “EXTRACELLULAR Free dye, fraction” value was determined as 99.1%; the “INTRACELLULAR Free dye” value is 78 relative fluorescence units; the “INTRACELLULAR Free dye, fraction of total fluorescence” value was 0.9%. Moreover, the “hydrolysis product detectable in washed cells” value in test [3] (washed at one hour then incubated additional 3 hours) is recorded as “not detectable”.
As for `CC(C)C[C@H](N)C(=O)Nc1ccc2c(c1)Oc1cc(NC(=O)c3c(F)c(F)c(F)c(F)c3F)ccc1C21OC(=O)c2ccccc21` (stereo partly drawn) [Compound 13-Leu, Rhodamine 110, pentafluorobenzoyl amide, L-leucine amide, hydrochloride], in the test on CRE BAG 2 cells [4], the “staining of cells, fluorescence microscopy” value was “punctate green fluorescence associated with organelles”.
For the molecule `O=C1OC2(c3ccc(OP(=O)(O)O)cc3Oc3cc(OP(=O)(O)O)ccc32)c2ccc(NC(=O)c3c(F)c(F)c(F)c(F)c3F)cc21` [Compound 47, 5-(pentafluorobenzoylamino)fluorescein diphosphate, tetraammonium salt], the “amount of enzyme detected, before washing” value in the test on alkaline phosphatase is listed as ~ 50 ng. Moreover, the “amount of enzyme detected, after washing” value in the test on alkaline phosphatase (washed twice for 5 minutes, per spot) is ~ 50 ng.
In the case of `O=C1OC2(c3ccc(O)cc3Oc3cc(O)ccc32)c2ccc(NC(=O)c3c(Cl)c(Cl)c(Cl)c(Cl)c3Cl)cc21` [Compound 48, 5-(pentachlorobenzoylamino)fluorescein], the “brightness versus autofluorescent control cells” value in the test on NIH-3T3 cells (0.1 mM dye, 37° C., 30 minutes then on ice 30 minutes) is “at least 20 fold”. Besides, the “dye retained by the cells” value in the test with NIH-3T3 cells (after 75 minutes of incubation at 37° C.) is on record as ~35%. Also, in test [5] (5 mM GSH, 0.5 mM substrate, 20 micrograms GST, pH 8.0, 1 hour, 37° C.), the “adduct formation with glutathione in presence of GST” value is reported as “does not form a new adduct”. Also, in test [5] (GST omitted), the “reaction in control without GST” value is “very low or no reaction”.
With `O=C1OC2(c3ccc(OP(=O)(O)O)cc3Oc3cc(OP(=O)(O)O)ccc32)c2ccccc21` [FDP, fluorescein diphosphate, reference compound], the “amount of enzyme detected, before washing” value in the test with alkaline phosphatase is reported as ~ 50 ng. The “detection of enzyme after washing” value with alkaline phosphatase (washed twice for 5 minutes) was “unable to detect the presence of any enzyme”.
